Data set [1] has as its system human squamous cell carcinoma specimens. As to the kind of experiment: Staining of freshly resected squamous cell carcinoma slices. On the procedure: Squamous Cell Carcinoma Specimens. Human squamous cell carcinoma specimens from planned resections of neoplasms were collected postoperatively according to a protocol with institutional review board approval. The specimens were in ice-cold normal saline for 30 min during transport back to the laboratory, where they were cut by hand to ≈1-mm-thick slices, added to 1 ml of 1 μM peptide for 15 min at room temperature, rinsed five times for 2 min in 1 ml of HBSS, cryosectioned, and imaged as described above.
ACPPs Light Up Human Squamous Cell Carcinomas. Although human tumor cell lines xenografted into immunodeficient mice are popular cancer models, they fail to mimic many aspects of real human tumors. […] Contrast, defined as (tumor tissue fluorescence−autofluorescence)/(normal tissue fluorescence−autofluorescence), was almost eight in this example. […]
Images from tumor tissue treated with cleavable peptide are much clearer than are images from similar tumor tissue treated with “scrambled” uncleavable peptides and are much clearer than images from normal tongue tissue treated with cleavable peptide. […] Sections were taken for fluorescence microscopy using a low-power objective, and tissue type was verified by staining tissue. […]

For data set [2], the system named is HT1080 xenografts and mouse tissues. As to the kind of experiment: Biodistribution of radiolabeled ACPPs in mice with HT1080 xenografts. The format is in vivo, nude mice. On the procedure:
FIG. 50: Biodistribution of ^99mTc-labeled albumin-ACPP. Mice xenografted as in FIG. 49 were sacrificed at 6, 24, and 48 hr after injection, organs were dissected, weighed, and radioactivity counted within 2 hrs to obtain % injected dose (% ID)/g tissue as shown in the bar graph (means±s.d., n=4 per time point). The inset table gives the corresponding mean standardized uptake values (SUV) defined as animal weight×(% ID/g tissue).
Serial scans were performed using the Biospace small animal planar scintigraphic imager. The % ID/g (% injected dose retained per gram of tissue) was measured by scintillation counting of tissues harvested post-mortem. The inventors have tested the above ACPPs and three other ^99mTc-labeled ACPPs: (70 KDa-dextran)-e9-XPLGLAG-r9-[DPK-^99mTc(CO)3], (murine serum albumin)-e9-XPLGLAG-r9-[DPK-^99mTc(CO)3], and (PAMAM generation 5 dendrimer)-e9-XPLGLAX-r9-[DPK-^99mTc(CO)3]. […] The tumor margins, however, appear relatively well-defined at earlier time points (see FIG. 48).
Because the ratio of tumor to liver uptake was at variance with the results obtained with fluorescent and magnetic labels and because of the limited literature on the use of DPK, the inventors tested whether the DPK chelator could be responsible for the affinity for normal tissues. Thus, the inventors synthesized and tested (70 KDa dextran)-e9-XPLGLAX-r9-(DOTA-^111In).

Data set [3] has as its system MMP-9. Put plainly: Fluorescence change upon enzymatic cleavage of self-quenching / FRET ACPPs. The format is biochemical. The text has this: (§1) Thus, such molecules may be administered in vivo, and are cleaved in vivo.
ACPPs with self-quenching fluorophores [Cy5-X-e6-XPLGLAG-r9-Xk(Cy5)] or FRET pairs [Cy7-X-e6-XPLGLAG-r9-Xk(Cy5)] were synthesized. […] The inventors have found these two substrates to be poorly soluble in physiological media, even though the inventors decreased the number of glutamate residues from nine to six so that the molecules would carry more net charge.

Data set [4] relates to Enterokinase. Put plainly: Peptide cleavage by enterokinase monitored by HPLC. The following applies: 0.38 mM peptide stock, 1 U/μl enterokinase. The format is biochemical. Here is the method:
10 μl 0.38 mM peptide dissolved in water stock solution was added to 10 μl 1 U/μl Enterokinase (Invitrogen, EKmax) and the cleavage progress was monitored by injecting 5 μl of the reaction mixture on HPLC monitored at 440 nm. The peptide was designed to be a substrate for enterokinase, with cleavage by enterokinase expected between the K and A residues. A High Performance Liquid Chromatography (HPLC) chromatogram of the peptide EDDDDKA-aca-R9-aca-C(Fl)-CONH2 (SEQ ID NO: 3) (before cleavage of linker portion between K and A) is illustrated in FIG. 6A. […] FIG. 6B illustrates the HPLC chromatogram of the peptide of FIG. 6A after cleavage by enterokinase. The new peak was collected and determined on a mass spectrometer. The determined mass corresponded (as expected) to cleavage between K and A in the sequence of EDDDDKA-aca-R9-aca-C(Fl)-CONH2. (SEQ ID NO: 3)
ACPP Cleavage by Enterokinase: 10 μl of a 0.38 mM peptide stock solution dissolved in water was mixed with 10 μl 1 U/μl enterokinase (Invitrogen) and incubated at 37° C. Enzymatic cleavage was monitored by injecting 5 μl of the reaction mixture on HPLC and observing either UVvis absorbance at 440 nm for fluorescein labeled or 650 nm for Cy5 labeled peptide. […] The new peaks were collected and their identities were determined by mass spectroscopy.

Data set [5] has as its system HT-1080 tumors and mouse tissues. As to the kind of experiment: Standardized uptake values in tissues after peptide injection. The format is in vivo, mice. The following applies: 1 hr after injection. Here is the method: Xenografts in Mice. Nude mice (age, 4-6 weeks) were injected s.c. with ≈10^6 HT-1080 cells. Once the tumors had reached ≈5-7 mm in size (typically 1-2 weeks later), animals were anesthetized with 100 mg/kg ketamine and 5 mg/kg midazolam), weighed, and injected with ≈100 μl of 60 μM peptide through the tail vein. Animals were then imaged at various times by using a Nikon f/1.2 camera lens in front of a cooled charge-coupled device camera (SenSys, Photometrics, Tucson, Ariz.). For longer lasting imaging studies, animals were allowed to wake up after 2 h of anesthesia and were reanesthetized at ≈4 and 6 hr for further data collection. Plasma half-lives were determined by the decrease in fluorescence intensity of ≈5-μl blood samples withdrawn periodically into heparinized capillaries. After imaging was ended, animals were killed with halothane, and organs of interest were harvested and weighed. For frozen sectioning, tissues were added to OCT cryopreservative and frozen on dry ice and hexane. […] Cy5 fluorescence was imaged as described above. […] Two sets of standards (liver and kidney) were used to calibrate fluorescence intensity in terms of peptide concentration. From this calibration, the quantity of peptide in 30 mg of tissue for each organ was calculated. SUVs were calculated as the molality of peptide in the tissue divided by the total injected dose as mol/kg of body weight. […]

The test system of data set [6] is tumor, kidney and liver of xenografted mice. As to the kind of experiment: Cyclic ACPP tested in xenografted mice. The format is in vivo. On the procedure: as §1
To generate cyclic peptides, the inventors synthesized cyclic[succinoyl-PLGLAG-c(11 KDa-mPEG)-e9-XPLGLAG-r9-K]-k(Cy5), which contains two cleavage sites. This cyclic ACCP was tested in xenografted mice. […] Thus, the cyclic substrate requiring two cleavages should favor the liver to an even greater extent. One of skill in the art would recognize that once peptide sequences (preferably two distinct ones) were obtained that individually are preferentially cleaved in the tumor over the liver, then the two-cut ACPPs would become advantageous for the practice of this invention.

This note sets out measurements from patent US20070041904A1, “Peptides whose uptake by cells is controllable” (priority 2003, published 2007).

Consider “(5 kDa PEG)-eeeeeeeeeXPLGLAG-rrrrrrrrrXk(Cy5) [cleavable peptide]”, for which the “contrast, relatively differentiated oral cavity_oropharynx tumors” value in data set [1] (mean±SD, two patients) was 2.7±0.2. Also, the “contrast, high-grade laryngeal tumors” value in data set [1] (two tumors) amounted to 6.5±3.4.

Take “(murine serum albumin)-e9-XPLGLAG-r9-[DPK-^99mTc(CO)3]”: the tumor uptake in data set [2] (HT1080 xenograft) is listed as 1-3 % ID/g. Also, in data set [2] (mouse, in vivo), the liver uptake is reported as 12-18 % ID/g.

For Cy5-X-e6-XPLGLAG-r9-Xk(Cy5), in data set [3], the “increase of fluorescence intensity upon cleavage by MMP-9” value is given as 3.9 fold.

In the case of Cy7-X-e6-XPLGLAG-r9-Xk(Cy5), in data set [3] (FRET substrate), the “increase in ratio of 650 to 770 nm emissions upon cleavage” value is 6.6 -fold.

With “EDDDDKA-aca-R9-aca-C(Fl)-CONH2 (EDDDDKAXRRRRRRRRRXX; aminocaproic linkers, fluorescein, C-terminal amide; Description of Artificial Sequence:peptide designed to be substrate for enterokinase; Xaa = aminohexanoic acid (aminocaproic acid); Xaa = cysteinamide modified by fluorescein (Fl))”, the “time to almost complete cleavage by enterokinase” value in data set [4] is 15 min.

For the substance [11-kDa PEG]-X-e9-XPLG*LAG-r9-Xk(Cy5), in data set [5], the “tumor SUV ratio cleavable vs control” value is 3.1.

Regarding “cyclic[succinoyl-PLGLAG-c(11 KDa-mPEG)-e9-XPLGLAG-r9-K]-k(Cy5)”, in data set [6] (compared to linear peptide with single cleavage site), the “decrease of tumor signal vs linear peptide” value is 2 factor. Moreover, in data set [6] (mouse, in vivo), the “increase of liver signal vs linear peptide” value is on record as approximately 10 factor.
